pIC50: −log10 of the molar value.
Test system: human monocytic cell line U937
Assay: Human U937 cellular necroptosis assay (TNFalpha + z-VAD-FMK, Cell Titer-Glo viability)
Format: cell-based
Conditions: Homo sapiens, U-937, 22 h, U937 cells, 25 ng/mL human TNFalpha + 25 μM z-VAD-FMK, read-out: hU937 Avg IC50
Procedure, shortened: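 Readout is CellTiter-Glo 2.0 luminescence after 22 h at 37° C with compound, in cells triggered by human TNFalpha (25 ng/mL) and z-VAD-FMK (25 μM) in phenol red-free RPMI/10% FBS. Values are run-averaged IC50s from a four-parameter logistic curve.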

SMILES	pIC50
COc1cc(C(F)C23CC(C(=O)N4N=CCC4c4cc(F)cc(F)c4)(C2)C3)ncn1 (stereo not drawn) [Example 229, (5-(3,5-difluorophenyl)-4,5-dihydro-1H-pyrazol-1-yl)(3-(fluoro(6-methoxypyrimidin-4-yl)methyl)bicyclo[1.1.1]-pentan-1-yl)methanone]	5.30
N#Cc1cnc(OCC23CC(C(=O)NCc4cc(F)ccc4F)(C2)C3)cn1 [Example 298, 3-(((5-cyanopyrazin-2-yl)oxy)-methyl)-N-(2,5-difluoro-benzyl)bicyclo[1.1.1]pentane-1-carboxamide]	5.17
N#Cc1cncc(C2CC=NN2C(=O)C23CC(COc4cnc(C#N)cn4)(C2)C3)c1 (stereo not drawn) [Example 284, 5-((3-(5-(5-cyanopyridin-3-yl)-4,5-dihydro-1H-pyrazole-1-carbonyl)bicyclo[1.1.1]pentan-1-yl)methoxy)pyrazine-2-carbonitrile]	6.79
Cc1cnc(C2CC=NN2C(=O)C23CC(COc4ccc(C#N)cn4)(C2)C3)cn1 (stereo not drawn) [Example 282, 6-((3-(5-(5-methylpyrazin-2-yl)-4,5-dihydro-1H-pyrazole-1-carbonyl)bicyclo[1.1.1]-pentan-1-yl)methoxy)-nicotinonitrile]	6.82
N#Cc1ccc(OCC23CC(C(=O)N4N=CCC4c4cc(F)ccc4F)(C2)C3)nc1 (stereo not drawn) [Example 308, 6-((3-(5-(2,5-difluorophenyl)-4,5-dihydro-1H-pyrazole-1-carbonyl)bicyclo[1.1.1]pentan-1-yl)methoxy)nicotinonitrile]	7.96
N#Cc1nc(C2CC2)nn1CC12CC(C(=O)N3N=CCC3c3cc(F)cc(F)c3)(C1)C2 (stereo not drawn) [Example 217, 3-cyclopropyl-1-((3-(5-(3,5-difluorophenyl)-4,5-dihydro-1H-pyrazole-1-carbonyl)-bicyclo[1.1.1]pentan-1-yl)-methyl)-1H-1,2,4-triazole-5-carbonitrile]	7.00
N#Cc1ccc2c(cnn2CC23CC(C(=O)N4N=CCC4c4cccc(Cl)c4Cl)(C2)C3)c1 (stereo not drawn) [Example 245, 1-((3-(5-(2,3-dichlorophenyl)-4,5-dihydro-1H-pyrazole-1-carbonyl)bicyclo[1.1.1]pentan-1-yl)methyl)-1H-indazole-5-carbonitrile]	7.37
N#Cc1cc2cn(CC34CC(C(=O)N5N=CCC5c5cc(F)cc(F)c5)(C3)C4)nc2cc1Cl (stereo not drawn) [Example 220, 6-chloro-2-((3-(5-(3,5-difluorophenyl)-4,5-dihydro-1H-pyrazole-1-carbonyl)-bicyclo[1.1.1]pentan-1-yl)-methyl)-2H-indazole-5-carbonitrile]	6.51
N#Cc1cnc(OCC23CC(C(=O)N4N=CCC4c4cc(F)cc(F)c4)(C2)C3)c(Cl)c1 (stereo not drawn) [Example 319, 5-chloro-6-((3-(5-(3,5-difluorophenyl)-4,5-dihydro-1H-pyrazole-1-carbonyl)-bicyclo[1.1.1]pentan-1-yl)-methoxy)nicotinonitrile]	7.68
N#Cc1ccc(OCC23CC(C(=O)N4N=CCC4c4cccc(F)c4F)(C2)C3)nc1 (stereo not drawn) [Example 270, 6-((3-(5-(2,3-difluorophenyl)-4,5-dihydro-1H-pyrazole-1-carbonyl)bicyclo[1.1.1]pentan-1-yl)methoxy)nicotinonitrile]	7.80
Cc1csc(C2CC=NN2C(=O)C23CC(Cn4ncc5cc(C#N)ccc54)(C2)C3)n1 (stereo not drawn) [Example 250, 1-((3-(5-(4-methylthiazol-2-yl)-4,5-dihydro-1H-pyrazole-1-carbonyl)bicyclo[1.1.1]-pentan-1-yl)methyl)-1H-indazole-5-carbonitrile]	6.57
N#Cc1ccc2c(cnn2CC23CC(C(=O)N4N=CCC4c4ccc(F)c(F)c4)(C2)C3)c1 (stereo not drawn) [Example 242, 1-((3-(5-(3,4-difluorophenyl)-4,5-dihydro-1H-pyrazole-1-carbonyl)bicyclo[1.1.1]pentan-1-yl)methyl)-1H-indazole-5-carbonitrile]	7.70
Cc1c(F)cc(C2CC=NN2C(=O)C23CC(Cn4ncc5cc(C#N)ccc54)(C2)C3)cc1F (stereo not drawn) [Example 203, 1-((3-(5-(3,5-Difluoro-4-methylphenyl)-4,5-dihydro-1H-pyrazole-1-carbonyl)bicyclo[1.1.1]pentan-1-yl)methyl)-1H-indazole-5-carbonitrile]	8.26
N#Cc1cnc(OCC23CC(C(=O)N4N=CCC4c4cnccn4)(C2)C3)cn1 (stereo not drawn) [Example 274, 5-((3-(5-(pyrazin-2-yl)-4,5-dihydro-1H-pyrazole-1-carbonyl)bicyclo[1.1.1]pentan-1-yl)methoxy)pyrazine-2-carbonitrile]	7.21
N#Cc1ccc2c(cnn2CC23CC(C(=O)N4N=CCC4c4ncccn4)(C2)C3)c1 (stereo not drawn) [Example 259, 1-((3-(5-(pyrimidin-2-yl)-4,5-dihydro-1H-pyrazole-1-carbonyl)bicyclo[1.1.1]pentan-1-yl)methyl)-1H-indazole-5-carbonitrile]	5.26
Cc1c(F)cc(C2CC=NN2C(=O)C23CC(COc4ccc(C#N)cn4)(C2)C3)cc1F (stereo not drawn) [Example 264, 6-((3-(5-(3,5-difluoro-4-methylphenyl)-4,5-dihydro-1H-pyrazole-1-carbonyl)-bicyclo[1.1.1]pentan-1-yl)-methoxy)nicotinonitrile]	7.92
N#Cc1ccc(OCC23CC(C(=O)N4N=CCC4c4cnccn4)(C2)C3)nc1 (stereo not drawn) [Example 280, 6-((3-(5-(pyrazin-2-yl)-4,5-dihydro-1H-pyrazole-1-carbonyl)bicyclo[1.1.1]pentan-1-yl)methoxy)nicotinonitrile]	6.97
Cc1ccc(C2CC=NN2C(=O)C23CC(COc4cnc(C#N)cn4)(C2)C3)cn1 (stereo not drawn) [Example 289, 5-((3-(5-(6-methylpyridin-3-yl)-4,5-dihydro-1H-pyrazole-1-carbonyl)bicyclo[1.1.1]-pentan-1-yl)methoxy)pyrazine-2-carbonitrile]	6.55
N#Cc1cnc(OCC23CC(C(=O)N4N=CCC4c4cn5ccccc5n4)(C2)C3)cn1 (stereo not drawn) [Example 317, 5-((3-(5-(imidazo[1,2-a]-pyridin-2-yl)-4,5-dihydro-1H-pyrazole-1-carbonyl)bicyclo-[1.1.1]pentan-1-yl)methoxy)-pyrazine-2-carbonitrile]	5.07
Cn1cc(-c2cnc(OCC34CC(C(=O)N5N=CCC5c5cc(F)cc(F)c5)(C3)C4)cn2)cn1 (stereo not drawn) [Example 344, (5-(3,5-difluorophenyl)-4,5-dihydro-1H-pyrazol-1-yl)(3-(((5-(1-methyl-1H-pyrazol-4-yl)pyrazin-2-yl)oxy)methyl)-bicyclo[1.1.1]pentan-1-yl)methanone]	7.25
Cc1nc(C2CC=NN2C(=O)C23CC(COc4ccc(C#N)cn4)(C2)C3)ccc1F (stereo not drawn) [Example 315, 6-((3-(5-(5-fluoro-6-methyl-pyridin-2-yl)-4,5-dihydro-1H-pyrazole-1-carbonyl)bicyclo-[1.1.1]pentan-1-yl)methoxy)-nicotinonitrile]	6.18
N#Cc1ccc2c(cnn2CC23CC(C(=O)N4N=CCC4c4cc(F)c(Br)c(F)c4)(C2)C3)c1 (stereo not drawn) [Example 241, 1-((3-(5-(4-bromo-3,5-difluorophenyl)-4,5-dihydro-1H-pyrazole-1-carbonyl)-bicyclo[1.1.1]pentan-1-yl)-methyl)-1H-indazole-5-carbonitrile]	7.74
COc1cc(C(O)C23CC(C(=O)N4N=CCC4c4cc(F)cc(F)c4)(C2)C3)ncn1 (stereo not drawn) [Example 232, (5-(3,5-difluorophenyl)-4,5-dihydro-1H-pyrazol-1-yl)(3-(hydroxy(6-methoxy-pyrimidin-4-yl)methyl)-bicyclo[1.1.1]pentan-1-yl)-methanone]	5.09
N#Cc1ccc(OCC23CC(C(=O)N4N=CCC4c4cc(F)cc(F)c4)(C2)C3)nn1 (stereo not drawn) [Example 323, 6-((3-(5-(3,5-difluorophenyl)-4,5-dihydro-1H-pyrazole-1-carbonyl)bicyclo[1.1.1]pentan-1-yl)methoxy)pyridazine-3-carbonitrile]	6.82
Cc1cc(F)c(C2CC=NN2C(=O)C23CC(COc4ccc(C#N)cn4)(C2)C3)cc1F (stereo not drawn) [Example 305, 6-((3-(5-(2,5-difluoro-4-methylphenyl)-4,5-dihydro-1H-pyrazole-1-carbonyl)-bicyclo[1.1.1]pentan-1-yl)-methoxy)nicotinonitrile]	8.19
Cc1cc2n(CC34CC(C(=O)N5N=CCC5c5cc(F)cc(F)c5)(C3)C4)ccn2n1 (stereo not drawn) [Example 216, (5-(3,5-difluorophenyl)-4,5-dihydro-1H-pyrazol-1-yl)(3-((6-methyl-1H-imidazo[1,2-b]pyrazol-1-yl)methyl)bicyclo-[1.1.1]pentan-1-yl)methanone]	7.04
N#Cc1cnc(OCC23CC(C(=O)N4N=CCC4c4ncc5ccccn45)(C2)C3)cn1 (stereo not drawn) [Example 316, 5-((3-(5-(imidazo[1,5-a]-pyridin-3-yl)-4,5-dihydro-1H-pyrazole-1-carbonyl)bicyclo-[1.1.1]pentan-1-yl)methoxy)-pyrazine-2-carbonitrile]	6.16
Cc1ccc(C2CC=NN2C(=O)C23CC(COc4cnc(C#N)cn4)(C2)C3)c(F)c1 (stereo not drawn) [Example 267, 5-((3-(5-(2-fluoro-4-methyl-phenyl)-4,5-dihydro-1H-pyrazole-1-carbonyl)bicyclo-[1.1.1]pentan-1-yl)methoxy)-pyrazine-2-carbonitrile]	8.42
N#Cc1ccc(OCC23CC(C(=O)N4N=CCC4c4cncc(F)c4)(C2)C3)nc1 (stereo not drawn) [Example 285, 6-((3-(5-(5-fluoropyridin-3-yl)-4,5-dihydro-1H-pyrazole-1-carbonyl)bicyclo[1.1.1]-pentan-1-yl)methoxy)-nicotinonitrile]	6.79
Cn1cc(-c2ccc(OCC34CC(C(=O)N5N=CCC5c5cc(F)cc(F)c5)(C3)C4)c(F)c2)cn1 (stereo not drawn) [Example 204, (5-(3,5-Difluorophenyl)-4,5-dihydro-1H-pyrazol-1-yl)(3-((2-fluoro-4-(1-methyl-1H-pyrazol-4-yl)phenoxy)methyl)bicyclo[1.1.1]pentan-1-yl)methanone]	7.66
